Results taken from PubChem BioAssay AID248 (DTP/NCI, 2004).
“And” between values parts separate entries of the source, which are not always exact repeats. Equal entries are not always repeated. Inconclusive results and toxic doses are left out.

System: L1210 leukemia ip in BDF1 mice, survival T/C
Assay: NCI In Vivo Anticancer Drug Screen. Data for tumor model L1210 Leukemia (intraperitoneal) in B6D2F1 (BDF1) mice
Details: endpoint: mean survival time, higher = longer survival
Method in brief: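 Read-out is survival time, reported as the treated-group measurement over the vehicle-control measurement.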

[1] = dose: 100.0 mg/kg/injection, schedule: Q04DX003 (ip), vehicle: Klucel (hydroxypropylcellulose) (HPC)
[2] = dose: 200.0 mg/kg/injection, schedule: Q04DX003 (ip), vehicle: Klucel (hydroxypropylcellulose) (HPC)
[3] = dose: 100.0 mg/kg/injection, schedule: Q04DX003 (ip), vehicle: saline with Tween-80
[4] = dose: 50.0 mg/kg/injection, schedule: Q01DX001 (ip), vehicle: saline
[5] = dose: 100.0 mg/kg/injection, schedule: Q01DX001 (ip), vehicle: saline
[6] = dose: 200.0 mg/kg/injection, schedule: Q01DX001 (ip), vehicle: saline
[7] = dose: 100.0 mg/kg/injection, schedule: Q01DX009 (ip), vehicle: saline with Tween-80
[8] = dose: 100.0 mg/kg/injection, schedule: Q04DX003 (ip), vehicle: saline
[9] = dose: 400.0 mg/kg/injection, schedule: Q01DX001 (ip), vehicle: saline
[10] = dose: 100.0 mg/kg/injection, schedule: Q01DX001 (ip), vehicle: Klucel (hydroxypropylcellulose) (HPC)
[11] = dose: 200.0 mg/kg/injection, schedule: Q01DX001 (ip), vehicle: Klucel (hydroxypropylcellulose) (HPC)

In the case of `O=C(Nc1ccc(C(=O)O)cc1)Nc1ccccc1Cl`, the T/C (dose: 25.0 mg/kg/injection, schedule: Q04DX002 (ip), vehicle: saline) is reported as 106 % of control, the T/C (dose: 50.0 mg/kg/injection, schedule: Q04DX002 (ip), vehicle: saline) is reported as 100 % of control and the T/C (dose: 100.0 mg/kg/injection, schedule: Q04DX002 (ip), vehicle: saline + alcohol) is reported as 114 % of control. The T/C (dose: 100.0 mg/kg/injection, schedule: Q04DX002 (ip), vehicle: saline) was 118 % of control.
For `CN(C)c1nnc(-c2ccc(Cl)cc2)nn1`, the T/C (dose: 100.0 mg/kg/injection, schedule: Q01DX001 (ip), vehicle: saline with Tween-80) was 96 % of control, the T/C (dose: 200.0 mg/kg/injection, schedule: Q01DX001 (ip), vehicle: saline with Tween-80) was 92 % of control and the T/C (dose: 400.0 mg/kg/injection, schedule: Q01DX001 (ip), vehicle: saline with Tween-80) was 88 % of control.
With `COc1ccc(C(=O)CCC(=O)O)c2ccccc12` the T/C [1] was 92 % of control, the T/C [2] was 93 % of control and the T/C (dose: 400.0 mg/kg/injection, schedule: Q04DX003 (ip), vehicle: Klucel (hydroxypropylcellulose) (HPC)) was 88 % of control.
With `Cc1cccc(C)c1N(N=O)C(=O)c1ccccc1` the T/C (dose: 75.0 mg/kg/injection, schedule: Q01DX001 (ip), vehicle: saline) was 98 % of control and the T/C (dose: 150.0 mg/kg/injection, schedule: Q01DX001 (ip), vehicle: saline) was 98 % of control.
For `CC1=C(C)CS(=O)(=O)C1`, the T/C (dose: 25.0 mg/kg/injection, schedule: Q04DX003 (ip), vehicle: saline with Tween-80) was 95 % of control, the T/C (dose: 50.0 mg/kg/injection, schedule: Q04DX003 (ip), vehicle: saline with Tween-80) was 101 % of control and the T/C [3] was 102 % of control.
With `Cc1cc(C)c(CCN(C)C)c(C)c1C` the T/C [4] was 103 % of control, the T/C [5] was 101 % of control and the T/C [6] was 101 % of control.
`CC1=NCCN1CCNC(=O)c1ccc(C(=O)NCCN2CCN=C2C)cc1` was tested, and the T/C (dose: 5.0 mg/kg/injection, schedule: Q01DX001 (ip), vehicle: saline) was 103 % of control and the T/C (dose: 10.0 mg/kg/injection, schedule: Q01DX001 (ip), vehicle: saline) was 101 % of control.
With `CC1CN=C(c2ccc(NC(=O)NCCCNC(=O)Nc3ccc(C4=NCC(C)N4)cc3)cc2)N1` (stereo unspecified) the T/C (dose: 30.0 mg/kg/injection, schedule: Q01DX015 (ip), vehicle: methylcellulose (MC)) was 150 % of control.
`COC1(OC)CC2C(=O)CCCC21OC(C)=O` (stereo unspecified) was tested, and the T/C (dose: 75.0 mg/kg/injection, schedule: Q04DX002 (ip), vehicle: saline) was 93 % of control, the T/C (dose: 150.0 mg/kg/injection, schedule: Q04DX002 (ip), vehicle: saline) was 103 % of control and the T/C (dose: 300.0 mg/kg/injection, schedule: Q04DX002 (ip), vehicle: saline) was 107 % of control.
For `Cc1ccccc1NC(=O)c1ccc([N+](=O)[O-])cc1`, the T/C [7] was 106 % of control, the T/C [3] was 98 % of control and the T/C (dose: 200.0 mg/kg/injection, schedule: Q01DX009 (ip), vehicle: saline with Tween-80) was 101 % of control. The T/C (dose: 200.0 mg/kg/injection, schedule: Q04DX003 (ip), vehicle: saline with Tween-80) was 94 % of control, the T/C (dose: 400.0 mg/kg/injection, schedule: Q01DX009 (ip), vehicle: saline with Tween-80) was 101 % of control and the T/C (dose: 400.0 mg/kg/injection, schedule: Q04DX003 (ip), vehicle: saline with Tween-80) was 98 % of control.
`CCC(=O)OCC1OC(n2cc(F)c(=O)[nH]c2=O)CC1OC(=O)CC` (stereo unspecified) was tested, and the T/C [4] was 101 % of control, the T/C (dose: 89.0 mg/kg/injection, schedule: Q01DX015 (ip), vehicle: saline) was 117 % of control and the T/C [5] was 101 % of control. The T/C [8] was 104 % of control, the T/C [6] was 101 % of control and the T/C (dose: 200.0 mg/kg/injection, schedule: Q04DX003 (ip), vehicle: saline) was 114 % of control. The T/C (dose: 264.0 mg/kg/injection, schedule: Q04DX003 (ip), vehicle: saline) was 111 % of control and 112 % of control, the T/C (dose: 300.0 mg/kg/injection, schedule: Q01DX015 (ip), vehicle: saline) was 115 % of control and the T/C [9] was 113 % of control. For the same compound, the T/C (dose: 400.0 mg/kg/injection, schedule: Q04DX003 (ip), vehicle: saline) was 108 % of control.
In the case of `CC(C)OCCCN=C(N)N`, the T/C (dose: 12.5 mg/kg/injection, schedule: Q01DX009 (ip), vehicle: saline) is reported as 100 % of control, the T/C (dose: 25.0 mg/kg/injection, schedule: Q01DX009 (ip), vehicle: saline) is reported as 98 % of control and the T/C (dose: 25.0 mg/kg/injection, schedule: Q04DX003 (ip), vehicle: saline) is reported as 101 % of control. The T/C (dose: 50.0 mg/kg/injection, schedule: Q01DX009 (ip), vehicle: saline) was 102 % of control and 104 % of control, the T/C (dose: 50.0 mg/kg/injection, schedule: Q04DX003 (ip), vehicle: saline) was 96 % of control and the T/C [8] was 96 % of control.
For `O=C1C(O)=C(c2ccccc2C(=O)O)C(=O)C(O)=C1c1ccccc1C(=O)O`, the T/C (dose: 25.0 mg/kg/injection, schedule: Q01DX009 (ip), vehicle: saline with Tween-80) was 101 % of control, the T/C (dose: 50.0 mg/kg/injection, schedule: Q01DX009 (ip), vehicle: saline with Tween-80) was 101 % of control and the T/C (dose: 50.0 mg/kg/injection, schedule: Q04DX002 (ip), vehicle: saline with Tween-80) was 102 % of control. For the same compound, the T/C [7] was 96 % of control, the T/C (dose: 100.0 mg/kg/injection, schedule: Q04DX002 (ip), vehicle: saline with Tween-80) was 98 % of control and 109 % of control and the T/C (dose: 200.0 mg/kg/injection, schedule: Q04DX002 (ip), vehicle: saline with Tween-80) was 102 % of control and 113 % of control. The T/C (dose: 400.0 mg/kg/injection, schedule: Q04DX002 (ip), vehicle: saline with Tween-80) was 98 % of control and 104 % of control.
For `CC(C)(C)S(=O)(=O)CCCCS(=O)(=O)C(C)(C)C`, the T/C [5] was 102 % of control, the T/C (dose: 100.0 mg/kg/injection, schedule: Q01DX009 (ip), vehicle: saline) was 104 % of control and the T/C (dose: 100.0 mg/kg/injection, schedule: Q04DX003 (ip), vehicle: acetone) was 100 % of control. The T/C [6] was 94 % of control, the T/C (dose: 200.0 mg/kg/injection, schedule: Q01DX009 (ip), vehicle: saline) was 96 % of control and the T/C (dose: 200.0 mg/kg/injection, schedule: Q04DX003 (ip), vehicle: acetone) was 96 % of control. For the same compound, the T/C [9] was 88 % of control, the T/C (dose: 400.0 mg/kg/injection, schedule: Q01DX009 (ip), vehicle: saline) was 105 % of control and the T/C (dose: 400.0 mg/kg/injection, schedule: Q04DX003 (ip), vehicle: acetone) was 89 % of control.
For `O=C1c2ccccc2C(=O)N1CCOc1ccc([N+](=O)[O-])cc1Cl`, the T/C (dose: 50.0 mg/kg/injection, schedule: Q04DX003 (ip), vehicle: Klucel (hydroxypropylcellulose) (HPC)) was 102 % of control, the T/C [1] was 101 % of control and the T/C [2] was 100 % of control.
In the case of `O=C(CNC(=O)c1ccc(Cl)cc1)NO`, the T/C [10] is reported as 96 % of control, the T/C [11] is reported as 102 % of control and the T/C (dose: 400.0 mg/kg/injection, schedule: Q01DX001 (ip), vehicle: Klucel (hydroxypropylcellulose) (HPC)) is reported as 96 % of control.
With `CCCCCCOC(=O)Nc1cccc2ccccc12` the T/C (dose: 75.0 mg/kg/injection, schedule: Q01DX009 (ip), vehicle: saline) was 94 % of control, the T/C (dose: 150.0 mg/kg/injection, schedule: Q01DX009 (ip), vehicle: saline) was 99 % of control and the T/C (dose: 300.0 mg/kg/injection, schedule: Q01DX009 (ip), vehicle: saline) was 96 % of control.
With `Cc1ccc([N+](=O)[O-])cc1NC(=O)N(CC(O)c1ccccc1)C1CCCCC1` (stereo unspecified) the T/C (dose: 100.0 mg/kg/injection, schedule: Q04DX002 (ip), vehicle: Klucel (hydroxypropylcellulose) (HPC)) was 90 % of control, the T/C (dose: 200.0 mg/kg/injection, schedule: Q04DX002 (ip), vehicle: Klucel (hydroxypropylcellulose) (HPC)) was 97 % of control and the T/C (dose: 400.0 mg/kg/injection, schedule: Q04DX002 (ip), vehicle: Klucel (hydroxypropylcellulose) (HPC)) was 95 % of control.
`O=S(=O)(/N=c1/ccc(NS(=O)(=O)c2ccccc2)cn1O)c1ccccc1` was tested, and the T/C (dose: 50.0 mg/kg/injection, schedule: Q01DX001 (ip), vehicle: Klucel (hydroxypropylcellulose) (HPC)) was 96 % of control, the T/C [10] was 102 % of control and the T/C [11] was 98 % of control.
`COc1cc(Cc2cnc(N)nc2N)cc(OC)c1OC` was tested, and the T/C [4] was 101 % of control, the T/C [5] was 92 % of control and the T/C [6] was 100 % of control. For the same compound, the T/C [9] was 97 % of control.
